Assay results reported in patent US20200375880A1, “PLANT EXTRACTS FROM THE TAGETES GENUS AND USES OF SAME” (PLANT ADVANCED TECHNOLOGIES PAT, priority 2016, published 2020).

What was measured:
[1] = test system: cells; details: pre-treatment of cells with leontopodic acid, Costa et al. 2010; cited from earlier work
[2] = test system: neuritic network of rat primary cortical neurons; assay: Neuritic network of primary cortical neurons injured by Aβ1-42 peptide (MAP-2 staining); type: cell-based; details: Aβ1-42 peptide 20 μM, 24 hours, 0.1% DMSO
Protocol: (§1) The purpose of this study is to evaluate the effects of the root extract on rat primary cortical neurons, intoxicated by Aβ peptide according to the in vitro Alzheimer disease model described in Callizot et al., 2013 (Callizot N. et al., Operational dissection of β-amyloid cytopathic effects on cultured neurons, J Neurosci Res. 2013, 91: 706-16). The neuron survival as well as the integrity of the neuritic network are evaluated.
(§2) Four concentrations are tested: 10 ng/mL, 100 ng/mL, 1 μg/mL and 10 μg/mL of dry extract diluted in water with 0.1% of DMSO.
(§3) Rat cortical neurons are cultured as described in Singer et al., 1999 (Singer C, et al., Mitogen-activated protein kinase pathway mediates estrogen neuroprotection after glutamate toxicity in primary cortical neurons. J Neurosci. 1999, 19: 2455-2463) and Callizot et al., (2013). In summary, gravid female rats are killed by cervical dislocation after 15 days of pregnancy. The foetuses are collected and immediately placed on an ice L15 Leibovitz medium (Pan Biotech, Batch: 8810315) added with 2% of penicillin (10,000 U/mL) and a streptomycin solution (l0 mg/mL) (PS; Pan Biotech, batch: 1451013) and 1% of bovine serum albumin (BSA; Pan Biotech, batch: K180713). […] The viable cells are counted with a Neubauer cytometer, using the trypan blue exclusion test. […]

[3] = test system: rat primary cortical neurons; assay: Survival of primary cortical neurons injured by Aβ1-42 peptide (MAP-2 staining); type: cell-based; details: Aβ1-42 peptide 20 μM, 24 hours, 0.1% DMSO
Protocol: as §1, §2, §3

Molecule | cell survival [1] | production of reactive oxygen species (ROS) [1] | loss of the neuritic network induced by the peptide alone [2] | neurone death induced by the peptide alone [3]
C[C@H](O)CC(=O)O[C@@H](C(=O)O)[C@@H](OC(=O)/C=C/c1ccc(O)c(O)c1)[C@H](OC(=O)/C=C/c1ccc(O)c(O)c1)[C@H](OC(=O)/C=C/c1ccc(O)c(O)c1)C(=O)O [leontopodic acid] | no improvement in the cell survival | decrease in the production of reactive oxygen species (ROS) | – | –
Aβ1-42 peptide: β-amyloid peptide (Bachem) used at 20 μM to intoxicate cortical neurons | – | – | significant loss of the neuritic network | significant neurone death
